How the values were obtained:
[1] = molecular target: human histamine H3 receptors (full-length H3, isoform 445) (Homo sapiens, UniProt Q9Y5N1); conditions: hH3 binding IC50 (nM), inhibition of 1.4 nM [3H]-N-α-methylhistamine binding to CHO-K1 membranes expressing human H3, SPA, 1.5 hr;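 further: scintillation counts read after the 1.5 hr incubation at room temperature with shaking, Imetit serving as reference control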
Procedure: Histamine H3 SPA with the Agonist Radioligand [^3H]—N-α-methylhistamine
Reproducibility of the assay is such that IC50 curves can be generated in singlicate. Single poke (SP) testing was done in triplicate.
Membranes, prepared from CHO-K1 cells stably expressing the human histamine H3 receptor, were obtained from ACS.
Tested formula I compounds were provided as solubilized samples in neat DMSO. Serial dilutions were performed in DMSO.
Plates were read on a Perkin Elmer TopCount. CPM data were used to analyze unless DPM data generated by a quench curve were required.
• 1. 1 mg/ml BSA was added to assay buffer (AB) on day of assay. • 2. […] Buffer volume was split between beads and membranes to allow for polytroning of membranes prior to addition to beads. • a. […] Waited a minimum of 15 minutes prior to adding membranes (See b. below.). • b. […] The homogenized membrane mixture was combined with the beads and a minimum of 30 minutes was waited prior to dispensing to plate. • 3. Formula I compounds: For Single Poke, 2 μl 1 mM of a compound in accordance with formula I was dispensed to Optiplates (triplicate plates) for final concentration of 10 μM. […] Imetit (see below) was used as a control. • 4. […] 5 μl samples were calculated in quadruplicate on the β counter. […] (For IC50s, use final concentration on calculation tab of ABase template.)
• 1. […] 2 μl of the formula I compound dilution was mixed and then transferred into assay plates. DMSO was removed and 2 μl of 100 μM Imetit was added to the wells. • 3. 178 μl bead/membrane mixture was dispensed into the assay plate. • 4. 20 μl [^3H]-NAMH was added with Rapid Plate. The assay plate was sealed and incubated for 1.5 hr on RT shaker at speed ˜6.5. • 5. The assay plate was subsequently centrifuged at 1000 rpm for 10 minutes. • 6. The count was performed on TopCount using one of the 3H SPA H3 Quench programs.
The DPM data was analyzed when tSIS was less than that associated with 70% of full scale on the quench curve (tSIS<25%). Otherwise, CPM data was used.

[2] = molecular target: T1, human Histamine H3 receptor (hH3R) (Homo sapiens, UniProt Q9Y5N1); experiment: Guanosine 5'-O-(3-[35S]thio)triphosphate [GTPγS] Binding Assay; format: biochemical; conditions: antagonist activity; membranes from CHO cells expressing hH3R, (R)-α-methyl histamine 30 nM, [35S]GTPγS 0.2 nM, 90 minutes
T1 construct: expressed in transfected cells; host or cells: CHO cells (membranes)
T1 sequence (Q9Y5N1 whole entry): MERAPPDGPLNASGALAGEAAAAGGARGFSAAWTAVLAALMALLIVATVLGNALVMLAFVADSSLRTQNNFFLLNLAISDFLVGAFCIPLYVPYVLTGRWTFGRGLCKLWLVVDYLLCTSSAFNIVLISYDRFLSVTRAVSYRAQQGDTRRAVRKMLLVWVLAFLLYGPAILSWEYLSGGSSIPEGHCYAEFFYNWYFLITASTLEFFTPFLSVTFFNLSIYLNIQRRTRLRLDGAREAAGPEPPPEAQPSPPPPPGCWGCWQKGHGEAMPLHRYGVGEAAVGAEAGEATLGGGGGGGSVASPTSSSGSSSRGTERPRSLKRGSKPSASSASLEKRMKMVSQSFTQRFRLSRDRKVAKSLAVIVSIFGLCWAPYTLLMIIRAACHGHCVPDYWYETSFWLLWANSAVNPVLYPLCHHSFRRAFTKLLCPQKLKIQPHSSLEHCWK
Procedure: Guanosine 5′-O-(3-[^35]thio)triphosphate [GTPγS] Binding Assay
The GTPγS binding assay can be used to investigate antagonist properties of compounds in CHO cells (Chinese Hamster Ovary) transfected with human Histamine H3 receptor (hH3R). […] To determine antagonist activity, (R)-α-methyl histamine (30 nM) is added in 96 well SPA plate with [^35S]GTPγS (0.2 nM) and various concentration of H3R antagonists. The GTPγS binding assay is started with addition of the mixture membrane/saponine/GDP and incubated for 90 minutes at room temperature. The amount of bound [^35S]GTPγS is determined by using the MicroBeta Trilux counter (PerkinElmer). The percentage of [^35S]GTPγS bound in each sample is calculated as a percentage of that bound control sample incubated in absence of H3 antagonist. Duplicate determinations are obtained for each concentration, and the data are analyzed using ExcelFit4 to obtain the IC50.

Chain of human histamine H3 receptors (full-length H3, isoform 445) (Q9Y5N1 whole entry, canonical isoform): as the sequence (Q9Y5N1 whole entry) above

| Compound | IC50 [1] [nM] | IC50 [2] [nM] |
| --- | --- | --- |
| CS(=O)(=O)c1ccc(N2CCC3(CC2)CC3C(=O)N2CCN(C3CCC3)CC2)cc1 (stereo not drawn) [Example 38, (4-Cyclobutyl-piperazin-1-yl)-[6-(4-methanesulfonyl-phenyl)-6-aza-spiro[2.5]oct-1-yl]-methanone] | 336 |  |
| O=C(C1CC12CCN(C1CCCCC1)CC2)N1CCN(C2CCC2)CC1 (stereo not drawn) [Example 31, (4-Cyclobutyl-piperazin-1-yl)-(6-cyclohexyl-6-aza-spiro[2.5]oct-1-yl)-methanone] | 11.3 | 13.5 |
| O=C(C1CC12CCN(C1CCOCC1)CC2)N1CCN(C2CC2)CC1 (stereo not drawn) [Example 9, (4-Cyclopropylpiperazin-1-yl)(6-(tetrahydro-2H-pyran-4-yl)-6-azaspiro[2.5]octan-1-yl)methanone] | 33.5 | 19 |
| O=C(C1CC12CCN(C1CCOCC1)CC2)N1CCN(c2ccccn2)CC1 (stereo not drawn) [Example 13, (4-Pyridin-2-yl-piperazin-1-yl)-[6-(tetrahydro-pyran-4-yl)-6-aza-spiro[2.5]oct-1-yl]-methanone] | 573 |  |
| O=C(C1CC12CCN(c1cccc(Cl)n1)CC2)N1CCN(C2CCC2)CC1 (stereo not drawn) [Example 42, [6-(6-Chloro-pyridin-2-yl)-6-aza-spiro[2.5]oct-1-yl]-(4-cyclobutyl-piperazin-1-yl)-methanone] | 594 |  |
| Cc1cnccc1N1CCN(C(=O)C2CC23CCN(C2CCOCC2)CC3)CC1 (stereo not drawn) [Example 50, (4-(3-methylpyridin-4-yl)piperazin-1-yl)(6-(tetrahydro-2H-pyran-4-yl)-6-azaspiro[2.5]octan-1-yl)methanone] |  | 115 |
| O=C(C1CC12CCN(C1CCCOC1)CC2)N1CCN(C2CCC2)CC1 (stereo not drawn) [Example 32, (4-Cyclobutyl-piperazin-1-yl)-[6-(tetrahydro-pyran-3-yl)-6-aza-spiro[2.5]oct-1-yl]-methanone] | 15 | 17 |
| CN1CCN(C(=O)C2CC23CCN(CCc2ccccc2)CC3)CC1 (stereo not drawn) [Example 5, (4-Methyl-piperazin-1-yl)-(6-phenethyl-6-aza-spiro[2.5]oct-1-yl)-methanone] | 640 |  |
| O=C(C1CC12CCN(C1CCOCC1)CC2)N1CCN(C2CCCCCC2)CC1 (stereo not drawn) [Example 11, (4-Cycloheptylpiperazin-1-yl)(6-(tetrahydro-2H-pyran-4-yl)-6-azaspiro[2.5]octan-1-yl)methanone] | 196 | 74 |
| CC(C)N1CCN(C(=O)C2CC23CCN(C2CCOCC2)CC3)CC1 (single isomer, unassigned) [Example 29, (4-Isopropyl-piperazin-1-yl)-[6-(tetrahydro-pyran-4-yl)-6-aza-spiro[2.5]oct-1-yl]-methanone] | 50.9 | 87.5 |
| O=C(C1CC12CCN(C1CCOCC1)CC2)N1CCN(C2CCCC2)CC1 (stereo not drawn) [Example 12, (4-cyclopentylpiperazin-1-yl)(6-(tetrahydro-2H-pyran-4-yl)-6-azaspiro[2.5]octan-1-yl)methanone] | 4.43 | 8.8 |
| O=C(C1CC12CCN(CCc1ccccc1)CC2)N1CCN(C2CCCCC2)CC1 (stereo not drawn) [Example 16, (4-Cyclohexyl-piperazin-1-yl)-(6-phenethyl-6-aza-spiro[2.5]oct-1-yl)-methanone] | 65.2 | 16.5 |
| O=C(C1CC12CCN(C1CCCCC1)CC2)N1CCN(C2CCC2)CC1 (single isomer, unassigned) [Example 27, (4-Cyclobutyl-piperazin-1-yl)-(6-cyclohexyl-6-aza-spiro[2.5]oct-1-yl)-methanone] | 7.68 | 44 |
| COCCN1CCC2(CC1)CC2C(=O)N1CCN(C2CCCCC2)CC1 (stereo not drawn) [Example 43, (4-Cyclohexyl-piperazin-1-yl)-[6-(2-methoxy-ethyl)-6-aza-spiro[2.5]oct-1-yl]-methanone] | 615 |  |
| CC(C)(C)OC(=O)CN1CCC2(CC1)CC2C(=O)N1CCN(C2CCC2)CC1 (stereo not drawn) [Example 36, [1-(4-Cyclobutyl-piperazine-1-carbonyl)-6-aza-spiro[2.5]oct-6-yl]-acetic acid tert-butyl ester] | 182 |  |
| CC(C)N1CCC2(CC1)CC2C(=O)N1CCN(C2CCCCC2)CC1 (stereo not drawn) [Example 21, (4-Cyclohexyl-piperazin-1-yl)-(6-isopropyl-6-aza-spiro[2.5]oct-1-yl)-methanone] | 141 | 19.3 |
| COC(=O)c1ccc(N2CCC3(CC2)CC3C(=O)N2CCN(C3CCC3)CC2)cc1 (stereo not drawn) [Example 40, 4-[1-(4-Cyclobutyl-piperazine-1-carbonyl)-6-aza-spiro[2.5]oct-6-yl]-benzoic acid methyl ester] | 470 |  |
| O=C(C1CC12CCN(C1CCCCC1)CC2)N1CCN(C2CCC2)CC1 (single isomer, unassigned) [Example 26, (4-Cyclobutyl-piperazin-1-yl)-(6-cyclohexyl-6-aza-spiro[2.5]oct-1-yl)-methanone] | 1.35 | 6.55 |

| Compound | IC50 [1] [nM] | IC50 [2] [nM] |
| --- | --- | --- |
| Cc1ccc(N2CCC3(CC2)CC3C(=O)N2CCN(C3CCC3)CC2)cc1 (stereo not drawn) [Example 45, (4-Cyclobutyl-piperazin-1-yl)-(6-p-tolyl-6-aza-spiro[2.5]oct-1-yl)-methanone] | 791 |  |
| CN1CCN(C(=O)C2CC23CCN(C/C=C/c2ccccc2)CC3)CC1 (stereo not drawn) [Example 4, (4-Methyl-piperazin-1-yl)-[6-((E)-3-phenyl-allyl)-6-aza-spiro[2.5]oct-1-yl]-methanone] | 800 |  |
| O=C(C1CC12CCN(c1ccc(C(F)(F)F)cn1)CC2)N1CCN(C2CCCCC2)CC1 (stereo not drawn) [Example 46, (4-Cyclohexyl-piperazin-1-yl)-[6-(5-trifluoromethyl-pyridin-2-yl)-6-aza-spiro[2.5]oct-1-yl]-methanone] | 10000 |  |
| COc1ccc(N2CCN(C(=O)C3CC34CCN(C3CCOCC3)CC4)CC2)cc1 (stereo not drawn) [Example 15, [4-(4-Methoxy-phenyl)-piperazin-1-yl]-[6-(tetrahydro-pyran-4-yl)-6-aza-spiro[2.5]oct-1-yl]-methanone] | 322 |  |
| CN1CCC(N2CCC3(CC2)CC3C(=O)N2CCN(C)CC2)CC1 (stereo not drawn) [Example 6, (4-Methyl-piperazin-1-yl)-[6-(1-methyl-piperidin-4-yl)-6-aza-spiro[2.5]oct-1-yl]-methanone] | 1300 |  |
| O=C(C1CC12CCN(C1CCOCC1)CC2)N1CCN(c2cccnc2)CC1 (stereo not drawn) [Example 48, (4-(pyridin-3-yl)piperazin-1-yl)(6-(tetrahydro-2H-pyran-4-yl)-6-azaspiro[2.5]octan-1-yl)methanone] |  | 308 |
| O=C(C1CC12CCN(c1ccccn1)CC2)N1CCN(C2CCC2)CC1 (stereo not drawn) [Example 44, (4-Cyclobutyl-piperazin-1-yl)-(6-pyridin-2-yl-6-aza-spiro[2.5]oct-1-yl)-methanone] | 736 |  |
| O=C(C1CC12CCN(C1CCOCC1)CC2)N1CCN(CC2CCCCC2)CC1 (stereo not drawn) [Example 2, (4-Cyclohexylmethyl-piperazin-1-yl)-[6-(tetrahydro-pyran-4-yl)-6-aza-spiro[2.5]oct-1-yl]-methanone] | 390 |  |
| COc1ccc(N2CCC3(CC2)CC3C(=O)N2CCN(C3CCC3)CC2)cc1 (stereo not drawn) [Example 39, (4-Cyclobutyl-piperazin-1-yl)-[6-(4-methoxy-phenyl)-6-aza-spiro[2.5]oct-1-yl]-methanone] | 361 |  |
| O=C(C1CC12CCN(C1CCOCC1)CC2)N1CCN(C2CCOCC2)CC1 (stereo not drawn) [Example 24, [6-(Tetrahydro-pyran-4-yl)-6-aza-spiro[2.5]oct-1-yl]-[4-(tetrahydro-pyran-4-yl)-piperazin-1-yl]-methanone] | 336 |  |
| COc1cccc(N2CCC3(CC2)CC3C(=O)N2CCN(C3CCC3)CC2)n1 (stereo not drawn) [Example 41, (4-Cyclobutyl-piperazin-1-yl)-[6-(6-methoxy-pyridin-2-yl)-6-aza-spiro[2.5]oct-1-yl]-methanone] | 542 |  |
| O=C(C1CC12CCN(c1ccc3c(c1)OCO3)CC2)N1CCN(C2CCCCC2)CC1 (stereo not drawn) [Example 47, (6-Benzo[1,3]dioxol-5-yl-6-aza-spiro[2.5]oct-1-yl)-(4-cyclohexyl-piperazin-1-yl)-methanone] | 5170 |  |
| O=C(C1CC12CCN(Cc1ccccc1)CC2)N1CCN(C2CCCCC2)CC1 (stereo not drawn) [Example 23, (6-Benzyl-6-aza-spiro[2.5]oct-1-yl)-(4-cyclohexyl-piperazin-1-yl)-methanone] | 306 |  |
| O=C(C1CC12CCN(CCOCc1ccccc1)CC2)N1CCN(C2CCCCC2)CC1 (stereo not drawn) [Example 25, [6-(2-Benzyloxy-ethyl)-6-aza-spiro[2.5]oct-1-yl]-(4-cyclohexyl-piperazin-1-yl)-methanone] | 419 |  |
| Cc1cc(N2CCN(C(=O)C3CC34CCN(C3CCOCC3)CC4)CC2)ccn1 (stereo not drawn) [Example 49, (4-(2-methylpyridin-4-yl)piperazin-1-yl)(6-(tetrahydro-2H-pyran-4-yl)-6-azaspiro[2.5]octan-1-yl)methanone] |  | 249 |
| CNC(=O)CN1CCC2(CC1)CC2C(=O)N1CCN(C2CCC2)CC1 (stereo not drawn) [Example 37, 2-[1-(4-Cyclobutyl-piperazine-1-carbonyl)-6-aza-spiro[2.5]oct-6-yl]-N-methyl-acetamide] | 207 |  |
| CCC(CC)CN1CCC2(CC1)CC2C(=O)N1CCN(C)CC1 (stereo not drawn) [Example 3, [6-(2-Ethyl-butyl)-6-aza-spiro[2.5]oct-1-yl]-(4-methyl-piperazin-1-yl)-methanone] | 1000 |  |

Source: US20100168105A1, “Spirocyclopropyl Piperidine Derivatives” (priority 2007, published 2010)
